“Also recorded” adds a separate entry of the source. Read-outs that look alike come from different tables or passages of the source.
Assay: Pharmacokinetic measurements of H3B-6527 capsules in patients (trial NCT02834780), plasma LC-MS/MS
Type: in vivo, human
Conditions: for Cmax / half-life / Tmax / AUC: human, plasma, oral; for Cmax: read-out: Cmax, geometric mean (CV%); for half-life: read-out: Half-life, geometric mean (CV%) (converted); for Tmax: read-out: Tmax, median (min-max); for AUC: read-out: AUC, geometric mean (CV%)
Excerpt: A description of the first in human clinical trial for H3B-6527 can be found at the ClinicalTrials.gov by searching for trial identifier NCT02834780. In summary, the trial included a study population having the following characteristics: Adult patients ≥18 years old with advanced HCC or ICC; Progression after at least one prior therapy; ECOG score of 0 or 1; Well compensated liver function; FGF19-positive (dose expansion phase only); Excluded if patients have significant active infections [except hepatitis B virus (HBV) and hepatitis C virus (HCV)], gastric or esophageal varices, or previous FGF19-FGFR4 targeted therapy.
Blood samples are collected at the planned time points from each patient and centrifuged. The plasma portion of each sample is then transferred to a K2EDTA tube, which is then shipped to a bioanalytical lab for concentration measurement using LC-MS/MS. The concentration data are then analyzed using Phoenix® WinNonlin software to obtain PK parameters. The obtained PK parameters are further summarized using analytical software.
Drug Administration and Dosage for Dose Escalation: H3B-6527 was administered orally QD or BID on a 21-day cycle. […] Patients in dose escalation phase were treated regardless of FGF19 status. Response determined by RECIST 1.1/modified RECIST every 6 weeks
Further collection and collation of the PK results of the trial of Example 2 at a later point in time are reflected in the following Table 5:
The results of further analysis of the PK data of the trial of Example 2 with the actual date and time of the dose administration and PK sampling after QC, an update from the results of a preliminary analysis with the nominal (i.e. planned) dosing/PK sampling date/time presented in Example 3, are reflected in the following Table 6. In this example the number of patients from which each PK parameter was calculated is shown, rather than the total number of patients receiving a particular dose and regimen as in Table 5.

[1] = 300 mg, 300 mg QD, fasted, Day 1, Table 5, nominal times
[2] = 300 mg, 300 mg QD, fasted, Day 1, Table 6, actual times after QC
[3] = 300 mg, 300 mg QD, fasted, Day 8, Table 5, nominal times
[4] = 300 mg, 300 mg QD, fasted, Day 8, Table 6, actual times after QC
[5] = 500 mg, 500 mg BID, fasted, Day 1, Table 5, nominal times
[6] = 500 mg, 500 mg BID, fasted, Day 1, Table 6, actual times after QC
[7] = 500 mg, 500 mg BID, fasted, Day 8, Table 5, nominal times
[8] = 500 mg, 500 mg BID, fasted, Day 8, Table 6, actual times after QC
[9] = 500 mg, 500 mg BID, fed, Day 1, Table 5, nominal times
[10] = 500 mg, 500 mg BID, fed, Day 1, Table 6, actual times after QC
[11] = 500 mg, 500 mg BID, fed, Day 8, Table 5, nominal times
[12] = 500 mg, 500 mg BID, fed, Day 8, Table 6, actual times after QC
[13] = 600 mg, 600 mg QD, fasted, Day 1, Table 5, nominal times
[14] = 600 mg, 600 mg QD, fasted, Day 1, Table 6, actual times after QC
[15] = 600 mg, 600 mg QD, fasted, Day 8, Table 5, nominal times
[16] = 600 mg, 600 mg QD, fasted, Day 8, Table 6, actual times after QC
[17] = 600 mg, 600 mg QD, fed, Day 1, Table 5, nominal times
[18] = 600 mg, 600 mg QD, fed, Day 1, Table 6, actual times after QC
[19] = 600 mg, 600 mg QD, fed, Day 8, Table 5, nominal times

Q: For C=CC(=O)Nc1cc(N2CCN(CC)CC2)ccc1Nc1cc(N(C)C(=O)Nc2c(Cl)c(OC)cc(OC)c2Cl)ncn1 [H3B-6527, N-(2-((6-(3-(2,6-dichloro-3,5-dimethoxyphenyl)-1-methylureido)pyrimidin-4-yl)amino)-5-(4-ethylpiperazin-1-yl)phenyl)acrylamide], which AUC, geometric mean (CV%) (300 mg QD, fasted, Day 1, Table 5, nominal times) is on record?
A: 73 ng·h/mL

Q: What about the AUC, geometric mean (CV%) (300 mg QD, fasted, Day 8, Table 5, nominal times) of the same compound?
A: 53 ng·h/mL

Q: And the AUC, geometric mean (CV%) (500 mg BID, fasted, Day 1, Table 5, nominal times)?
A: 470 ng·h/mL

Q: And the AUC, geometric mean (CV%) (500 mg BID, fasted, Day 8, Table 5, nominal times)?
A: 1200 ng·h/mL

Q: What about the AUC, geometric mean (CV%) (500 mg BID, fed, Day 1, Table 5, nominal times) of the same compound?
A: 769 ng·h/mL

Q: And the AUC, geometric mean (CV%) (500 mg BID, fed, Day 8, Table 5, nominal times)?
A: 1080 ng·h/mL

Q: What about the “exposure in plasma across doses” value (500 mg to 2000 mg administered with food (FIG. 4)) of the same compound?
A: appeared to be similar across the doses from 500 mg to 2000 mg

Q: What about the AUC, geometric mean (CV%) (600 mg QD, fasted, Day 1, Table 5, nominal times) of the same compound?
A: 175 ng·h/mL

Q: And the AUC, geometric mean (CV%) (600 mg QD, fasted, Day 8, Table 5, nominal times)?
A: 636 ng·h/mL

Q: What about the AUC, geometric mean (CV%) (600 mg QD, fed, Day 1, Table 5, nominal times) of the same compound?
A: 1280 ng·h/mL

Q: And the AUC, geometric mean (CV%) (600 mg QD, fed, Day 8, Table 5, nominal times)?
A: 502 ng·h/mL

Q: What about the AUC, geometric mean (CV%) (700 mg BID, fed, Day 1, Table 5, nominal times) of the same compound?
A: 590 ng·h/mL

Q: And the AUC, geometric mean (CV%) (700 mg BID, fed, Day 8, Table 5, nominal times)?
A: 640 ng·h/mL

Q: And the AUC, geometric mean (CV%) (1000 mg QD, fasted, Day 1, Table 5, nominal times)?
A: 602 ng·h/mL

Q: What about the AUC, geometric mean (CV%) (1000 mg QD, fasted, Day 8, Table 5, nominal times) of the same compound?
A: 912 ng·h/mL

Q: And the AUC, geometric mean (CV%) (1000 mg QD, fed, Day 1, Table 5, nominal times)?
A: 1100 ng·h/mL

Q: And the AUC, geometric mean (CV%) (1000 mg QD, fed, Day 8, Table 5, nominal times)?
A: 865 ng·h/mL

Q: And the AUC, geometric mean (CV%) (1400 mg QD, fasted, Day 1, Table 5, nominal times)?
A: 400 ng·h/mL

Q: What about the AUC, geometric mean (CV%) (1400 mg QD, fasted, Day 8, Table 5, nominal times) of the same compound?
A: 1450 ng·h/mL

Q: And the AUC, geometric mean (CV%) (1400 mg QD, fed, Day 1, Table 5, nominal times)?
A: 5670 ng·h/mL

Q: What about the AUC, geometric mean (CV%) (1400 mg QD, fed, Day 8, Table 5, nominal times) of the same compound?
A: 5450 ng·h/mL

Q: And the AUC, geometric mean (CV%) (2000 mg QD, fed, Day 1, Table 5, nominal times)?
A: 3030 ng·h/mL

Q: And the AUC, geometric mean (CV%) (2000 mg QD, fed, Day 8, Table 5, nominal times)?
A: 1920 ng·h/mL

Q: And the “minimal plasma concentration, BID versus QD schedule” value (Cycle 1, Day 8 (FIG. 1))?
A: A higher minimal plasma concentration was maintained on the BID schedule

Q: And the “plasma levels / exposure versus dose” value (QD, fasted, Cycle 1, Day 8 (FIG. 1), preliminary PK analysis)?
A: increased with dose from 300 to 1000 mg QD and plateaued; also recorded: increased with dose up to 1000 mg QD

Q: What about the Cmax [1] of the same compound?
A: 20 ng/mL

Q: What about the half-life [1] of the same compound?
A: 84 min

Q: What about the Tmax [1] of the same compound?
A: 2 h

Q: What about the AUC [2] of the same compound?
A: 72.7 ng·h/mL

Q: And the Cmax [2]?
A: 20.3 ng/mL

Q: What about the half-life [2] of the same compound?
A: 151 min

Q: And the Tmax [2]?
A: 2 h

Q: And the Cmax [3]?
A: 11 ng/mL

Q: And the half-life [3]?
A: 72 min

Q: And the Tmax [3]?
A: 4 h

Q: And the AUC [4]?
A: 53 ng·h/mL

Q: What about the Cmax [4] of the same compound?
A: 10.8 ng/mL

Q: What about the half-life [4] of the same compound?
A: 213 min

Q: What about the Tmax [4] of the same compound?
A: 4 h

Q: What about the Cmax [5] of the same compound?
A: 124 ng/mL

Q: What about the half-life [5] of the same compound?
A: 114 min

Q: And the Tmax [5]?
A: 2.75 h

Q: And the AUC [6]?
A: 292 ng·h/mL

Q: What about the Cmax [6] of the same compound?
A: 124 ng/mL

Q: What about the half-life [6] of the same compound?
A: 145 min

Q: What about the Tmax [6] of the same compound?
A: 2.12 h

Q: What about the Cmax [7] of the same compound?
A: 253 ng/mL

Q: What about the half-life [7] of the same compound?
A: 108 min

Q: What about the Tmax [7] of the same compound?
A: 3.05 h

Q: What about the AUC [8] of the same compound?
A: 1110 ng·h/mL

Q: What about the Cmax [8] of the same compound?
A: 251 ng/mL

Q: And the half-life [8]?
A: 178 min

Q: What about the Tmax [8] of the same compound?
A: 4 h

Q: And the Cmax [9]?
A: 255 ng/mL

Q: And the half-life [9]?
A: 126 min

Q: What about the Tmax [9] of the same compound?
A: 4.02 h

Q: And the AUC [10]?
A: 768 ng·h/mL

Q: What about the Cmax [10] of the same compound?
A: 255 ng/mL

Q: And the half-life [10]?
A: 140 min

Q: What about the Tmax [10] of the same compound?
A: 4.02 h

Q: And the Cmax [11]?
A: 262 ng/mL

Q: What about the half-life [11] of the same compound?
A: 138 min

Q: And the Tmax [11]?
A: 4 h

Q: What about the AUC [12] of the same compound?
A: 814 ng·h/mL

Q: What about the Cmax [12] of the same compound?
A: 211 ng/mL

Q: What about the half-life [12] of the same compound?
A: 179 min

Q: What about the Tmax [12] of the same compound?
A: 4 h

Q: What about the Cmax [13] of the same compound?
A: 74 ng/mL

Q: What about the half-life [13] of the same compound?
A: 144 min

Q: What about the Tmax [13] of the same compound?
A: 1 h

Q: What about the AUC [14] of the same compound?
A: 175 ng·h/mL

Q: What about the Cmax [14] of the same compound?
A: 74.5 ng/mL

Q: And the half-life [14]?
A: 431 min

Q: What about the Tmax [14] of the same compound?
A: 1 h

Q: And the Cmax [15]?
A: 194 ng/mL

Q: What about the half-life [15] of the same compound?
A: 288 min

Q: And the Tmax [15]?
A: 0.52 h

Q: And the AUC [16]?
A: 636 ng·h/mL

Q: What about the Cmax [16] of the same compound?
A: 194 ng/mL

Q: What about the half-life [16] of the same compound?
A: 439 min

Q: What about the Tmax [16] of the same compound?
A: 0.52 h

Q: What about the Cmax [17] of the same compound?
A: 241 ng/mL

Q: And the half-life [17]?
A: 222 min

Q: What about the Tmax [17] of the same compound?
A: 4 h

Q: And the AUC [18]?
A: 1630 ng·h/mL

Q: And the Cmax [18]?
A: 395 ng/mL

Q: And the half-life [18]?
A: 223 min

Q: What about the Tmax [18] of the same compound?
A: 4 h

Q: What about the Cmax [19] of the same compound?
A: 100 ng/mL

Q: And the half-life [19]?
A: 192 min
